Source: PubChem BioAssay AID1259407 (Chemical Carcinogenesis Research Information System (CCRIS), 2018)
Active and inactive are the calls of the source. No rule for the calls is given here.

System: CCRIS mutagenicity, Ames/micronucleus/aberration tests
Assay: CCRIS mutagenicity studies

## CSC1=N[C@@](C)(c2ccccc2)C(=O)N1Nc1ccccc1
End Point: In vitro chromosomal aberrations, Test System: Human peripheral blood lymphocytes, Metabolic Activation: None
  mutagenic call: active; positive
End Point: In vitro chromosomal aberrations, Test System: Human peripheral blood lymphocytes, Metabolic Activation: S-9
  mutagenic call: active; positive
End Point: In vivo micronucleus, Test System: Bone marrow polychromatic erythrocytes, Species: Mouse, Strain/Sex: CD-1/Male and female, Route: Intraperitoneal
  mutagenic call: inactive; negative
End Point: UDS, Test System: Rat hepatocytes, Species: Wistar/Male, Method: Autoradiography
  mutagenic call: inactive; negative. (higher doses too toxic to score)
Test System: Ames Salmonella typhimurium, Strain/Indicator: TA98, Metabolic Activation: None, Method: Plate incorporation and preincubation
  mutagenic call: inactive; negative
Test System: Ames Salmonella typhimurium, Strain/Indicator: TA98, Metabolic Activation: Rat, Liver, S-9, Method: Plate incorporation and preincubation
  mutagenic call: inactive; negative
Test System: Ames Salmonella typhimurium, Strain/Indicator: TA100, Metabolic Activation: None, Method: Plate incorporation and preincubation
  mutagenic call: inactive; negative
Test System: Ames Salmonella typhimurium, Strain/Indicator: TA100, Metabolic Activation: Rat, Liver, S-9, Method: Plate incorporation and preincubation
  mutagenic call: inactive; negative
Test System: Ames Salmonella typhimurium, Strain/Indicator: TA102, Metabolic Activation: None, Method: Plate incorporation and preincubation
  mutagenic call: inactive; negative
Test System: Ames Salmonella typhimurium, Strain/Indicator: TA102, Metabolic Activation: Rat, Liver, S-9, Method: Plate incorporation and preincubation
  mutagenic call: inactive; negative
Test System: Ames Salmonella typhimurium, Strain/Indicator: TA1535, Metabolic Activation: None, Method: Plate incorporation and preincubation
  mutagenic call: inactive; negative
Test System: Ames Salmonella typhimurium, Strain/Indicator: TA1535, Metabolic Activation: Rat, Liver, S-9, Method: Plate incorporation and preincubation
  mutagenic call: inactive; negative
Test System: Ames Salmonella typhimurium, Strain/Indicator: TA1537, Metabolic Activation: None, Method: Plate incorporation and preincubation
  mutagenic call: inactive; negative
Test System: Ames Salmonella typhimurium, Strain/Indicator: TA1537, Metabolic Activation: Rat, Liver, S-9, Method: Plate incorporation and preincubation
  mutagenic call: inactive; negative
Test System: Mouse lymphoma, Strain/Indicator: L5178Y (tk+/tk-), Metabolic Activation: None, Method: Microtiter fluctuation
  mutagenic call: inactive; negative
Test System: Mouse lymphoma, Strain/Indicator: L5178Y (tk+/tk-), Metabolic Activation: S-9, Method: Microtiter fluctuation
  mutagenic call: active; positive. (increase in small colony mutant frequency indicates clastogenicity)

## CCCCCCCCCCCCCO
Test System: AMES SALMONELLA TYPHIMURIUM, Strain/Indicator: TA98, Metabolic Activation: NONE, Method: PREINCUBATION
  mutagenic call: inactive; negative
Test System: AMES SALMONELLA TYPHIMURIUM, Strain/Indicator: TA98, Metabolic Activation: RAT LIVER S-9, PHENOBARBITAL AND BETA-NAPHTHOFLAVONE, Method: PREINCUBATION
  mutagenic call: inactive; negative
Test System: AMES SALMONELLA TYPHIMURIUM, Strain/Indicator: TA100, Metabolic Activation: NONE, Method: PREINCUBATION
  mutagenic call: inactive; negative
Test System: AMES SALMONELLA TYPHIMURIUM, Strain/Indicator: TA100, Metabolic Activation: RAT LIVER S-9, PHENOBARBITAL AND BETA-NAPHTHOFLAVONE, Method: PREINCUBATION
  mutagenic call: inactive; negative
Test System: AMES SALMONELLA TYPHIMURIUM, Strain/Indicator: TA1535, Metabolic Activation: NONE, Method: PREINCUBATION
  mutagenic call: inactive; negative
Test System: AMES SALMONELLA TYPHIMURIUM, Strain/Indicator: TA1535, Metabolic Activation: RAT LIVER S-9, PHENOBARBITAL AND BETA-NAPHTHOFLAVONE, Method: PREINCUBATION
  mutagenic call: inactive; negative
Test System: AMES SALMONELLA TYPHIMURIUM, Strain/Indicator: TA1537, Metabolic Activation: NONE, Method: PREINCUBATION
  mutagenic call: inactive; negative
Test System: AMES SALMONELLA TYPHIMURIUM, Strain/Indicator: TA1537, Metabolic Activation: RAT LIVER S-9, PHENOBARBITAL AND BETA-NAPHTHOFLAVONE, Method: PREINCUBATION
  mutagenic call: inactive; negative
Test System: E.COLI, Strain/Indicator: WP2UVRA/PKM101, Metabolic Activation: NONE, Method: PREINCUBATION
  mutagenic call: inactive; negative
Test System: E.COLI, Strain/Indicator: WP2UVRA/PKM101, Metabolic Activation: RAT LIVER S-9, PHENOBARBITAL AND BETA-NAPHTHOFLAVONE, Method: PREINCUBATION
  mutagenic call: inactive; negative

## Cc1cc2ncccc2c2nc(N=[N+]=[N-])n(C)c12
Test System: AMES SALMONELLA TYPHIMURIUM, Strain/Indicator: TA98(1,8-DNP6), Metabolic Activation: NONE, Method: STANDARD PLATE
  mutagenic call: active; positive
Test System: AMES SALMONELLA TYPHIMURIUM, Strain/Indicator: TA98, Metabolic Activation: NONE, Method: STANDARD PLATE
  mutagenic call: active; positive
